pEC50, pIC50: −log10 of the molar value. In brackets after ≈: the same amount, converted by molar mass. Read-outs that look alike come from different tables or passages of the source.
What was measured:
[1] = tested on: housefly larval central nervous system; assay: Neurophysiological recordings of CNS nerve discharge in housefly larvae; parameters: species or system Musca domestica; conditions: for pEC50: Musca domestica
Experimental: Neurophysiological recordings were performed on the central and peripheral nervous systems of larval Musca domestica. Glass pipette electrodes were pulled from borosilicate glass capillaries on a P-1000 Flaming/Brown micropipette puller (Sutter Instrument, Novato CA, USA). For CNS recordings, it was first excised from the larvae and placed in a separate dish with physiological saline (200 µL) containing: 157 mM NaCl, 3 mM KCl, 2 mM CaCl2, and 4 mM HEPES, pH = 7.25. The CNS was manually transected posterior to the cerebral lobes to disrupt the blood-brain barrier and enhance chemical penetration. Any convenient peripheral nerve trunks were pulled into a recording suction electrode. Amplification and digitization of descending electrical activity originating from the CNS were converted on-line into a rate plot, expressed in Hz (MacLab analog to digital converter hardware and LabChart 7 software, ADInstruments, Colorado Springs, CO, USA). […] After a baseline was established, the CNS preparation was directly exposed to test compound by adding 200 µL of solution to the bath containing 200 µL of saline. The final concentration of solvent in the bath was 0.1% DMSO. Each concentration was recorded for 3–5 min prior to the addition of the next drug concentration. […] Each drug concentration was replicated 3-5 times.

Ae. aegypti = assay: WHO filter paper contact toxicity bioassay; format: in vivo; conditions: Aedes aegypti; WHO filter paper assay, 1 h exposure, mortality at 24 h; read-out: LC50 (95% CI)
[2] = tested on: octopamine receptors of Sf21 cells; assay: Calcium fluorescence assay in Sf21 cells; format: cell-based; conditions: 100 µM
Experimental: The Sf21 insect cell line was obtained from a commercial supplier (Invitrogen, Carlsbad, CA, USA) and maintained in log phase culture in Trichoplusia ni Medium-Formulation Hink (TNM-FH) from Sigma-Aldrich (St. Louis, MO, USA), supplemented with 10% fetal bovine serum and 100 U/ml penicillin and streptomycin (Sigma-Aldrich). Cells were cultured in a non-humidified environment and maintained at 27°C. Sf21 cells were passaged every 3–5 days according to manufacturer's instructions, and maintained for about 30 passes before being replaced by fresh cells.
Sf21 cells were plated into 96-well black-wall, clear bottom plates 24 h before calcium fluorescence assay. […] The octopamine receptor antagonist phentolamine (100 µM) was co-incubated with cells for 1 h before drug challenge. Phentolamine, octopamine, and DEET were dissolved in water, while propoxur was dissolved in 100% DMSO to make a stock solution, and in the assay, DMSO was kept to 0.1%. The experiment was repeated in triplicate with different plates of cells to obtain means and SEMs for each experimental condition.

[3] = target: T1, Anopheles gambiae AChE (AgAChE), wild type G3 strain (Anopheles gambiae, UniProt Q869C3); assay: AChE inhibition, Ellman assay; format: biochemical
T1 construct: Homogenate enzymes were prepared from groups of ten non-blood fed adult female mosquitoes; from tissue; host or cells: whole adult female mosquitoes, G3 strain, supernatant of homogenate
Text: (§1) In vitro biochemical assays utilized five acetylcholinesterase (AChE) enzymes. Recombinant human AChE (hAChE) was purchased from a commercial source (lyophilized powder, Sigma C1682, St. Louis, MO, USA). Homogenates to prepare Anopheles gambiae AChE (AgAChE) were obtained from the wild type G3 strain and the resistant AKRON strain (BEI Resources; http://www.beiresources.org/). AKRON mosquitoes (from Benin and donated by M. Akogbeto) have both knockdown resistance (kdr) to pyrethroids (L1014F sodium channel mutation) and the G119S AChE mutation (ace-1R), which confers resistance to carbamates, [15]. Both strains were cultured in the Emerging Pathogens Institute, University of Florida, Gainesville, FL, USA from eggs provided by the Center for Disease Control, Atlanta, GA, USA. Homogenates were also used to prepare Aedes aegypti AChE (AeAChE) from mosquitoes provided by the CMAVE, USDA-ARS, Gainesville, FL, USA; Musca domestica AChE (MdAChE) from flies cultured in the Department of Entomology and Nematology, Medical Entomology Laboratory, University of Florida, Gainesville, FL, USA); and Drosophila melanogaster AChE (DmAChE) from flies (Oregon-R strain) cultured in the Emerging Pathogens Institute, University of Florida, Gainesville, FL, USA. Homogenate enzymes were prepared from groups of ten non-blood fed adult female mosquitoes, five whole bodied Drosophila, or three Musca heads homogenized in 1 mL of ice-cold sodium phosphate buffer (0.1 M sodium phosphate, pH 7.8) with an electric motor driven glass tissue homogenizer. The homogenate was centrifuged at 5000×g using a Sorvall Fresco refrigerated centrifuge at 4 °C for 5 minutes. The supernatant was used as the enzyme source, and all enzyme preparations contained 0.3% (v/v) triton X-100 and 1 mg/ml BSA. Prior to use, the recombinant human enzyme was diluted 500-fold into sodium phosphate buffer containing triton X-100 and 1 mg/ml BSA.
(§2) Inhibition of AChE was determined using the Ellman assay and was based on the method outlined in Carlier et al.. Briefly, enzyme solution (10 µL) was added to each well of a 96-well micro assay plate, along with 20 µL of inhibitor in DMSO/saline suspension, and 150 µL of sodium phosphate buffer. Final concentration of DMSO was 0.1% in all incubations. The plate was incubated at 25 °C for ten minutes. Ellman assay reagents, acetylthiocholine iodide (0.4 mM, final concentration) and 5,5′-dithiobis-(2-nitro)benzoic acid (0.3 mM, final concentration), were prepared fresh and 20 µL was added to the enzyme to initiate the reaction.

[4] = target: T2, Drosophila melanogaster AChE (DmAChE) (Drosophila melanogaster, UniProt P07140); assay: AChE inhibition, Ellman assay; format: biochemical
T2 construct: five whole bodied Drosophila, or three Musca heads homogenized; from tissue; host or cells: whole Drosophila (Oregon-R), supernatant of homogenate
Text: as §1, §2

[5] = target: T3, Aedes aegypti AChE (AeAChE) (Aedes aegypti, UniProt Q6A2E2); assay: AChE inhibition, Ellman assay; format: biochemical
T3 construct: Homogenate enzymes were prepared from groups of ten non-blood fed adult female mosquitoes; from tissue; host or cells: whole adult female mosquitoes, supernatant of homogenate
Text: as §1, §2

Drosophila melanogaster = assay: Diet (sugar-feeding) toxicity assay; format: in vivo; conditions: 1 mg/ml, mortality at 24 h
Experimental: Diet toxicity assays were performed on mixed sex adult Drosophila melanogaster fasted for 8 hours prior to initiating the experiment. Flies were transferred into a container stoppered with a cotton ball infused with 1 ml of a sucrose/DEET solution containing 20 insects (2–3 day old adults). The assay was run three times on three different days with matched controls. Mortality was recorded at the 24-hour time point.
For all toxicity assays, control mortality was corrected for using Abbots formula [19]; where corrected percent mortality = (% alive in control–% alive in treated) /% alive in control.

[6] = mean, n = 3, read-out: IC50 (95% CI)

CCN(CC)C(=O)c1cccc(C)c1 [DEET, N, N-diethyl-meta-toluamide]
threshold concentration for neuroexcitation [1]: about 50 µM
pEC50 ([1]; abstract, read-out: EC50, excitatory effects): 3.92
LC50 (Ae. aegypti): 2300 µg/mL (≈ 12 mM)
increase in calcium fluorescence ([2]; over control cells): ca. 30%
sensitivity of enzyme in words ([3]; concentrations up to 10 mM): completely insensitive
pIC50 [3, 6]: < 2.00
pIC50 [4, 6]: 2.00
sensitivity of enzyme in words ([5]; concentrations up to 10 mM): completely insensitive
pIC50 [5, 6]: < 2.00
toxicity in sugar-feeding assay (Drosophila melanogaster): non-toxic

CNC(=O)Oc1ccccc1OC(C)C [propoxur]
pEC50 ([1]; Fig. 3C, read-out: EC50 for increasing spike frequency in the CNS): 6.46
effect on calcium fluorescence in words [2]: no effect
pIC50 [3]: 6.35
pIC50 [4]: 7.08
pIC50 [5]: 6.43

Reference: publication PMC4125160, “Neurotoxicity and Mode of Action of N, N-Diethyl-Meta-Toluamide (DEET)” (PLoS ONE, 2014)
